{"source": "patent US10940156B2", "about": "“Neuroactive steroids, compositions, and uses thereof” (Sage Therapeutics, Inc., priority 2016, dated 2021)", "key": {"[1]": {"tested_on": "healthy volunteers", "assay": "Phase I single ascending dose (SAD) study: MOAA/S sedation and adverse events", "type": "in vivo, human", "from_the_text": "Example 2. A Phase I, Double-Blind, Placebo-Controlled, Single Ascending Dose Study to Determine the Maximum Tolerated Dose (MTD), Pharmacokinetics and Pharmacodynamics of Compound 9 Oral Solution in Healthy Volunteers and the Safety, Tolerability, and Pharmacokinetics of Compound 9 in Subjects with Essential Tremor\nThis four-part study will assess the effects of a single dose of Compound 9. The initial part of the study is a double-blind, placebo-controlled single ascending dose (SAD) design in healthy, adult volunteers with the objective of identifying the maximum tolerated dose (MTD) and pharmacokinetic (PK) profiles of Compound 9 Oral Solution. Escalation to the next dose will be undertaken only after safety and PK data have been reviewed by the Safety Review Committee (SRC) and agreement reached that it is safe to increase the dose. The SRC will not receive any unblinded PK data unless it is agreed upon by the SRC to unblind a subject and/or cohort based on the completed safety review.\nIn each of the SAD cohorts, subjects will be randomly assigned to receive either Compound 9 (six subjects) or placebo (two subjects) in a blinded manner. Cohort 1 will receive Dose 1, Cohort 2 will receive Dose 2, and so on. With the exception of the Food cohort, study drug will be administered in a fasting state (no food and only water for the previous 12 hours) and a standard Phase 1 unit diet will be administered beginning approximately four to five hours after dosing. […]\nThe MOAA/S allows exploration of deeper sedation states than the SSS. […] If a MOAA/S score of 3 or less (≤3) is observed, confirm the score by waiting approximately 10 minutes and readministering the MOAA/S assessment. […]"}, "[2]": {"tested_on": "healthy volunteers", "assay": "Phase I multiple ascending dose (MAD) study: MOAA/S sedation", "type": "in vivo, human", "from_the_text": "Example 3. Phase I, Double-Blind, Placebo-Controlled, Multiple Ascending Dose Study to Determine Safety, Tolerability, Pharmacokinetics and Pharmacodynamics of Compound 9 Oral Solution in Healthy Volunteers\nThis study comprises a double blind, placebo-controlled multiple ascending dose (MAD) study followed by an open-label drug-drug interaction study (DDI) without placebo in healthy, adult volunteers. Four cohorts of 12 subjects each will be recruited for a total of 48 subjects. Subjects in Cohorts 1, 2, and 3 will participate in the multiple-ascending-dose (MAD) part of the study, and subjects in Cohort 4 will participate in the drug-drug-interaction (DDI) part of the study.\nThe objective of the MAD part of the study is to determine the safety, tolerability, pharmacokinetics (PK), and pharmacodynamic (PD) profile of seven days of dosing with Compound 9 Oral Solution (henceforth referred to as Compound 9).\nThe MOAA/S allows exploration of deeper sedation states than the SSS. All time points are relative to the time of dosing. If the planned time point is between the hours of 22:00 h and 08:00 h each day or if the subject has been discharged before the +72 hour time point, the assessment need not be conducted at that time point. If a subject is difficult to awaken, an additional MOAA/S assessment may be performed at the discretion of the PI. Any MOAA score of 3 or less must be repeated. […]"}, "[3]": {"assay": "14-day dog toxicology study", "type": "in vivo", "settings": "dog, in vivo; dogs; 14-day daily administration, solution in HPBCD", "description": "(§1) The compound was assessed in 14-day rat and dog toxicology studies with daily administration of Compound 9 as a solution in HPBCD in dogs and Labrasol® in rats.\n(§2) The NOAEL in rats was 3 mg/kg (females) and 22.5 mg/kg (males), and was 2.5 mg/kg in dogs. […] A single observation of mortality occurred in one female rat at the high dose in a toxicokinetic study which was suspected to have been related to exaggerated pharmacology."}, "[4]": {"tested_on": "dogs", "assay": "14-day dog toxicology study", "type": "in vivo", "description": "as §1, §2"}, "[5]": {"assay": "14-day rat toxicology study", "type": "in vivo", "settings": "for NOAEL at 14 days: in vivo, 14-day daily administration, solution in Labrasol", "description": "as §1, §2"}, "[6]": {"tested_on": "rats", "assay": "14-day rat toxicology study", "type": "in vivo", "description": "as §1, §2"}, "[7]": {"tested_on": "seizures arising from chemoconvulsants, proconvulsant stimuli, and genetic predisposition", "assay": "preclinical anticonvulsant models", "type": "in vivo, rodents", "settings": "oral", "description": "FIGS. 3A and 3B depict exemplary preclinical anticonvulsant efficacy in rodents.\nas §1"}, "[8]": {"assay": "toxicology and safety pharmacology studies across species", "type": "in vivo", "description": "as §1\nExpected risks are those identified during the toxicology and safety pharmacology studies for Compound 9 and clinical study Example 2. […] This will be monitored in the clinical study using two scales, one designed to monitor “sleepiness” (Stanford Sleepiness Scale) and one to monitor deeper sedation (Modified Observer's Assessment of Alertness/Sedation)."}, "[9]": {"settings": "male and female rats, non-adverse, reversible, without microscopic correlates"}}}
{"smiles": "C[C@@]1(O)CC[C@H]2[C@H](CC[C@@H]3[C@@H]2CC[C@]2(C)[C@@H](C(=O)Cn4cc(C#N)cn4)CC[C@@H]32)C1", "note": "[Compound 9]", "values": [{"measurement": "subjects with MOAA/S ≤2", "setting": "[1]; 55 mg single dose, stopping criteria not met", "result": 2, "unit": "subjects"}, {"measurement": "subjects with MOAA/S ≤2", "setting": "[1]; 66 mg single dose, stopping criteria met", "result": 2, "unit": "subjects"}, {"measurement": "adverse events possibly or probably related to the study drug", "setting": "[1]; five SAD cohorts dosed, oral solution, study ongoing", "result": "mild drowsiness, mild confusion, somnolence, headache, orthostatic heart rate increase, aloofness, anxiety, sore throat and mild abdominal discomfort"}, {"measurement": "subjects with MOAA/S scores of 1 or 2 (deep sedation)", "setting": "[2]; 35 mg group, all at 1 hour post-dose", "result": "two"}, {"measurement": "mean MOAA/S", "setting": "[2]; by 4 hours post-dose", "result": "approached baseline values"}, {"measurement": "NOAEL at 14 days", "setting": "[3]", "result": 2.5, "unit": "mg/kg"}, {"measurement": "adverse effects in main toxicology study", "setting": "[4]", "result": "no adverse effects"}, {"measurement": "core body temperature", "setting": "[4]", "result": "transient decreases in core body temperature"}, {"measurement": "heart rate", "setting": "[4]", "result": "transient increases in heart rate"}, {"measurement": "renal microscopic finding", "setting": "[4]; well-documented vehicle effect", "result": "minimal renal tubular vacuolation"}, {"measurement": "AUC at 14 day", "setting": "[5]; plasma, 22.5 mg/kg, male rat 14-day toxicology, read-out: AUC at lowest NOAEL exposure in toxicology studies", "result": 5.05, "unit": "µg·h/mL"}, {"measurement": "NOAEL at 14 days", "setting": "[5]; rat, female rats", "result": 3, "unit": "mg/kg"}, {"measurement": "NOAEL at 14 days", "setting": "[5]; rat, male rats", "result": 22.5, "unit": "mg/kg"}, {"measurement": "Cmax", "setting": "[5]; rat, plasma, 3 mg/kg, female rats, Day 14, read-out: estimated human Cmax based on the lowest NOAEL Day 14 Cmax in female rats", "result": 0.4, "unit": "µg/mL"}, {"measurement": "mortality", "setting": "[6]; female rat, high dose, toxicokinetic study, suspected related to exaggerated pharmacology", "result": "one"}, {"measurement": "increases in AST/ALT", "setting": "[6]; high dose male and female rats", "result": "< 2", "unit": "fold"}, {"measurement": "microscopic liver finding", "setting": "[6]; high dose male and female rats", "result": "increased incidence of minimal hepatocellular vacuolation"}, {"measurement": "APTT", "setting": "[6]; [9]", "result": "slight prolongation of APTT"}, {"measurement": "urine pH", "setting": "[6]; [9]", "result": "slight increase in urine pH"}, {"measurement": "adverse effects in main toxicology study", "setting": "[6]; rats", "result": "no adverse effects"}, {"measurement": "anticonvulsant activity", "setting": "[7]", "result": "orally active in preclinical anticonvulsant models, and suppressed seizures"}, {"measurement": "most common drug-related effect", "setting": "[8]; across species, studies and doses", "result": "dose-related sedation"}, {"measurement": "manifestations of exaggerated pharmacology", "setting": "[8]; nonclinical studies", "result": "sedation and ataxia"}]}
